Assay results taken from BigSolDB 2.1.

O=C1Nc2ccccc2C1=O
Details	solubility (mole fraction)
in PEG-400, 298.15 K	0.0985
in PEG-400, 308.15 K	0.109
in PEG-400, 318.15 K	0.121
in PEG-400, 328.15 K	0.132
in PEG-400, 338.15 K	0.144

solubility (mole fraction)
Details	in ethanol	in ethyl acetate	in ethylene glycol	in isopropanol	in propylene glycol	in sec-butanol	in transcutol	in water
298.15 K	0.00409	0.00568	0.00754	0.00419	0.00673	0.00516	0.523	5.14e-05
308.15 K	0.00506	0.00738	0.0092	0.00545	0.00827	0.00596	0.539	8.08e-05
318.15 K	0.0065	0.00926	0.011	0.00694	0.01	0.0071	0.561	0.000113
328.15 K	0.00755	0.0111	0.0127	0.00867	0.0112	0.00814	0.581	0.000152
338.15 K	0.00897	0.013	0.0146	0.0105	0.0133	0.00899	0.598	0.000202
